Laboratory results as given in ChEMBL document CHEMBL1201862, “PubChem BioAssay data set” (2004).
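Cells were grown in 96-well plates and exposed to each compound for 48 hours at five concentrations; endpoints were interpolated linearly between bracketing concentrations, or set to the highest concentration if not reached. GI50 marks 50% less growth.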 Calls of active or inactive are those of the source. No stated cut-off is given here; in the data, active = GI50 up to about 1.1 µM and inactive = higher.

Tests used:
Assay in all cases: growth of human tumour cells (NCI), 48 h
786-0 = test system: 786-0
A498 = test system: A498
A549 = test system: A549
ACHN = test system: ACHN
BT-549 = test system: BT-549
CAKI-1 = test system: CAKI-1
CCRF-CEM = test system: CCRF-CEM
COLO 205 = test system: COLO 205
DLD-1 = test system: DLD-1
DMS-114 = test system: DMS-114
DMS-273 = test system: DMS-273
DU-145 = test system: DU-145
EKVX = test system: EKVX
HCC 2998 = test system: HCC 2998
HCT-116 = test system: HCT-116
HCT-15 = test system: HCT-15
HL-60 = test system: HL-60
HOP-18 = test system: HOP-18
HOP-62 = test system: HOP-62
HOP-92 = test system: HOP-92
HT-29 = test system: HT-29
Hs-578T = test system: Hs-578T
IGROV-1 = test system: IGROV-1
K562 = test system: K562
KM-20L2 = test system: KM-20L2
KM12 = test system: KM12
LOX IMVI = test system: LOX IMVI
LXFL 529 = test system: LXFL 529
M14 = test system: M14
M19-MEL = test system: M19-MEL
MCF7 = test system: MCF7
MDA-MB-231 = test system: MDA-MB-231
MDA-MB-435 = test system: MDA-MB-435
MDA-N = test system: MDA-N
MOLT-4 = test system: MOLT-4
Malme-3M = test system: Malme-3M
NCI-H226 = test system: NCI-H226
NCI-H23 = test system: NCI-H23
NCI-H460 = test system: NCI-H460
NCI-H522 = test system: NCI-H522
NCI/ADR-RES = test system: NCI/ADR-RES
OVCAR-3 = test system: OVCAR-3
OVCAR-4 = test system: OVCAR-4
OVCAR-5 = test system: OVCAR-5
OVCAR-8 = test system: OVCAR-8
PC-3 = test system: PC-3
RPMI-8226 = test system: RPMI-8226
RXF 393 = test system: RXF 393
RXF 631 = test system: RXF 631
SF-268 = test system: SF-268
SF-295 = test system: SF-295
SF-539 = test system: SF-539
SK-MEL-28 = test system: SK-MEL-28
SK-MEL-2 = test system: SK-MEL-2
SK-MEL-5 = test system: SK-MEL-5
SK-OV-3 = test system: SK-OV-3
SN12C = test system: SN12C
SNB-19 = test system: SNB-19
SNB-75 = test system: SNB-75
SNB-78 = test system: SNB-78
SR = test system: SR
SW-620 = test system: SW-620
T47D = test system: T47D
TK-10 = test system: TK-10
U-251 = test system: U-251
UACC-257 = test system: UACC-257
UACC-62 = test system: UACC-62
UO-31 = test system: UO-31
XF498 = test system: XF498

Measured: GI50

C/C(=N\N=C(/[SeH])N1CC2CCC(CC2)C1)c1ccccn1
14.7 nM: HCT-15
active: 786-0 211 nM | A498 196 nM | A549 61.4 nM | ACHN 215 nM | BT-549 182 nM | CAKI-1 293 nM | CCRF-CEM 11.1 nM | COLO 205 < 10 nM | DLD-1 < 10 nM | DMS-114 < 10 nM | DMS-273 13.6 nM | DU-145 927 nM | EKVX 91.4 nM | HCC 2998 243 nM | HCT-116 < 10 nM | HL-60 16.6 nM | HOP-18 294 nM | HOP-62 341 nM | HOP-92 169 nM | HT-29 < 10 nM | Hs-578T 198 nM | IGROV-1 16.9 nM | K562 < 10 nM | KM-20L2 < 10 nM | KM12 94 nM | LOX IMVI 24.4 nM | LXFL 529 < 10 nM | M14 25.5 nM | M19-MEL 44.9 nM | MCF7 < 10 nM | MDA-MB-231 115 nM | MDA-MB-435 119 nM | MDA-N 226 nM | MOLT-4 14 nM | Malme-3M 50.6 nM | NCI-H226 430 nM | NCI-H23 52 nM | NCI-H460 56.8 nM | NCI-H522 161 nM | NCI/ADR-RES < 10 nM | OVCAR-3 22.2 nM | OVCAR-4 30 nM | OVCAR-5 179 nM | OVCAR-8 13.7 nM | PC-3 64.7 nM | RPMI-8226 < 10 nM | RXF 393 29.1 nM | RXF 631 400 nM | SF-268 161 nM | SF-295 67.3 nM | SF-539 251 nM | SK-MEL-28 95.5 nM | SK-MEL-2 156 nM | SK-MEL-5 51 nM | SK-OV-3 356 nM | SN12C 228 nM | SNB-19 200 nM | SNB-75 87.1 nM | SNB-78 216 nM | SR 22.3 nM | SW-620 13.9 nM | T47D 55.6 nM | TK-10 762 nM | U-251 91 nM | UACC-257 11.2 nM | UACC-62 59.6 nM | UO-31 217 nM | XF498 < 10 nM

CC(=O)OC1COC(N2C(=O)C(=O)c3cc(Br)ccc32)C(OC(C)=O)C1OC(C)=O (stereo not given)
inactive: 786-0 > 100000 nM | A498 > 100000 nM | A549 > 100000 nM | ACHN > 100000 nM | CAKI-1 > 100000 nM | CCRF-CEM 71300 nM | COLO 205 > 100000 nM | DLD-1 > 100000 nM | DMS-114 > 100000 nM | DMS-273 > 100000 nM | EKVX > 100000 nM | HCC 2998 > 100000 nM | HOP-18 > 100000 nM | HOP-62 > 100000 nM | HOP-92 > 100000 nM | HT-29 > 100000 nM | IGROV-1 > 100000 nM | K562 > 100000 nM | KM-20L2 > 100000 nM | KM12 > 100000 nM | LOX IMVI > 100000 nM | LXFL 529 > 100000 nM | M14 > 100000 nM | M19-MEL 52100 nM | MOLT-4 96800 nM | Malme-3M > 100000 nM | NCI-H226 > 100000 nM | NCI-H23 > 100000 nM | NCI-H460 > 100000 nM | NCI-H522 > 100000 nM | OVCAR-3 > 100000 nM | OVCAR-4 > 100000 nM | OVCAR-8 > 100000 nM | RPMI-8226 > 100000 nM | RXF 393 > 100000 nM | RXF 631 > 100000 nM | SF-268 > 100000 nM | SF-295 > 100000 nM | SF-539 > 100000 nM | SK-MEL-28 > 100000 nM | SK-MEL-2 > 100000 nM | SK-MEL-5 > 100000 nM | SK-OV-3 > 100000 nM | SN12C > 100000 nM | SNB-19 > 100000 nM | SNB-75 > 100000 nM | SNB-78 > 100000 nM | SR > 100000 nM | SW-620 > 100000 nM | TK-10 > 100000 nM | U-251 > 100000 nM | UACC-257 > 100000 nM | UACC-62 > 100000 nM | UO-31 > 100000 nM | XF498 > 100000 nM
> 100000 nM: HCT-15
